Values joined by “and” are separate entries in the source; they are usually repeats but may differ in a detail not shown here. Equal values may be shown once. Inconclusive results and toxic doses are left out. Rule as the data show it: active = T/C of 150% or more; inactive = T/C below 125%. Peptide text beside a SMILES is read from it.
Tested on: L1210 leukemia ip in BDF1 mice, survival T/C
Experiment: NCI In Vivo Anticancer Drug Screen. Data for tumor model L1210 Leukemia (intraperitoneal) in B6D2F1 (BDF1) mice
Conditions: endpoint: mean survival time, higher = longer survival
How it was run: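 Transplantable tumor model; survival measured in treated vs vehicle control mice. Value = treated/control.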

[1] = dose: 100.0 mg/kg/injection, schedule: Q01DX001 (ip), vehicle: saline
[2] = dose: 200.0 mg/kg/injection, schedule: Q01DX001 (ip), vehicle: saline
[3] = dose: 400.0 mg/kg/injection, schedule: Q01DX001 (ip), vehicle: saline
[4] = dose: 100.0 mg/kg/injection, schedule: Q04DX003 (ip), vehicle: Klucel (hydroxypropylcellulose) (HPC)
[5] = dose: 200.0 mg/kg/injection, schedule: Q04DX003 (ip), vehicle: Klucel (hydroxypropylcellulose) (HPC)
[6] = dose: 400.0 mg/kg/injection, schedule: Q04DX003 (ip), vehicle: Klucel (hydroxypropylcellulose) (HPC)
[7] = dose: 50.0 mg/kg/injection, schedule: Q01DX001 (ip), vehicle: saline
[8] = dose: 75.0 mg/kg/injection, schedule: Q01DX001 (ip), vehicle: saline
[9] = dose: 150.0 mg/kg/injection, schedule: Q01DX001 (ip), vehicle: saline
[10] = dose: 100.0 mg/kg/injection, schedule: Q01DX009 (ip), vehicle: Klucel (hydroxypropylcellulose) (HPC)
[11] = dose: 200.0 mg/kg/injection, schedule: Q01DX009 (ip), vehicle: Klucel (hydroxypropylcellulose) (HPC)
[12] = dose: 400.0 mg/kg/injection, schedule: Q01DX009 (ip), vehicle: Klucel (hydroxypropylcellulose) (HPC)

Measured: T/C

Cc1ccc(NC(=S)N(CCC#N)Cc2ccccc2)cc1C
inactive: dose: 100.0 mg/kg/injection, schedule: Q01DX001 (ip), vehicle: carboxymethylcellulose (CMC) 94 % of control | dose: 100.0 mg/kg/injection, schedule: Q01DX009 (ip), vehicle: carboxymethylcellulose (CMC) 93 % of control and 107 % of control | dose: 100.0 mg/kg/injection, schedule: Q04DX002 (ip), vehicle: carboxymethylcellulose (CMC) 98 % of control | dose: 100.0 mg/kg/injection, schedule: Q04DX003 (ip), vehicle: carboxymethylcellulose (CMC) 90 % of control | dose: 200.0 mg/kg/injection, schedule: Q01DX001 (ip), vehicle: carboxymethylcellulose (CMC) 100 % of control | dose: 200.0 mg/kg/injection, schedule: Q01DX009 (ip), vehicle: carboxymethylcellulose (CMC) 89 % of control and 91 % of control | dose: 200.0 mg/kg/injection, schedule: Q04DX002 (ip), vehicle: carboxymethylcellulose (CMC) 101 % of control and 88 % of control | dose: 200.0 mg/kg/injection, schedule: Q04DX003 (ip), vehicle: carboxymethylcellulose (CMC) 95 % of control | dose: 400.0 mg/kg/injection, schedule: Q01DX001 (ip), vehicle: carboxymethylcellulose (CMC) 90 % of control | dose: 400.0 mg/kg/injection, schedule: Q01DX009 (ip), vehicle: carboxymethylcellulose (CMC) 86 % of control | dose: 400.0 mg/kg/injection, schedule: Q04DX002 (ip), vehicle: carboxymethylcellulose (CMC) 95 % of control and 88 % of control | dose: 400.0 mg/kg/injection, schedule: Q04DX003 (ip), vehicle: carboxymethylcellulose (CMC) 90 % of control

CCOC(=S)SCCSC(=S)OCC
inactive: [1] 105 % of control | [2] 100 % of control | [3] 97 % of control

O=Nn1c2ccccc2c2ccccc21
inactive: dose: 100.0 mg/kg/injection, schedule: Q04DX003 (ip), vehicle: gum acacia 92 % of control | dose: 200.0 mg/kg/injection, schedule: Q04DX003 (ip), vehicle: gum acacia 95 % of control | dose: 400.0 mg/kg/injection, schedule: Q04DX003 (ip), vehicle: gum acacia 87 % of control

C=CCc1c[nH]c(=O)[nH]c1=O
inactive: dose: 50.0 mg/kg/injection, schedule: Q04DX003 (ip), vehicle: Klucel (hydroxypropylcellulose) (HPC) 100 % of control | [4] 108 % of control and 91 % of control | [5] 97 % of control and 100 % of control | [6] 90 % of control

Nc1ccccc1SC(CC(=O)c1ccccc1)c1ccc(Cl)cc1 (stereo not drawn)
inactive: dose: 100.0 mg/kg/injection, schedule: Q01DX005 (ip), vehicle: Klucel (hydroxypropylcellulose) (HPC) 91 % of control | dose: 100.0 mg/kg/injection, schedule: Q04DX002 (ip), vehicle: Klucel (hydroxypropylcellulose) (HPC) 89 % of control | dose: 200.0 mg/kg/injection, schedule: Q01DX005 (ip), vehicle: Klucel (hydroxypropylcellulose) (HPC) 97 % of control | dose: 200.0 mg/kg/injection, schedule: Q04DX002 (ip), vehicle: Klucel (hydroxypropylcellulose) (HPC) 95 % of control | dose: 400.0 mg/kg/injection, schedule: Q01DX005 (ip), vehicle: Klucel (hydroxypropylcellulose) (HPC) 97 % of control | dose: 400.0 mg/kg/injection, schedule: Q04DX002 (ip), vehicle: Klucel (hydroxypropylcellulose) (HPC) 100 % of control

CC(NC(=O)C(CCC(=O)O)NC(=O)C(N)C(C)C)C(=O)NCC(=O)NC(C(=O)NC(CCC(=O)O)C(=O)NC(C)C(=O)NCC(=O)NCC(=O)O)C(C)C (stereo not drawn) (H-VEAGVEAGG-OH; configuration not given here)
inactive: [7] 93 % of control | [1] 95 % of control | [2] 91 % of control

COc1cc2c(cc1OC)C(CC1=C(c3ccccc3)CN3CCc4cc(OC)c(OC)cc4C3C1)NCC2 (stereo not drawn)
inactive: dose: 4.0 mg/kg/injection, schedule: Q04DX003 (ip), vehicle: water 106 % of control and 102 % of control | dose: 8.0 mg/kg/injection, schedule: Q04DX003 (ip), vehicle: water 98 % of control and 101 % of control | dose: 16.0 mg/kg/injection, schedule: Q04DX003 (ip), vehicle: water 106 % of control and 103 % of control | dose: 32.0 mg/kg/injection, schedule: Q04DX003 (ip), vehicle: water 102 % of control and 96 % of control | dose: 64.0 mg/kg/injection, schedule: Q04DX003 (ip), vehicle: water 96 % of control and 95 % of control | [8] 101 % of control and 97 % of control | [9] 94 % of control and 92 % of control

c1ccc(C23c4ccccc4C(=NC4CCCCC4)C2N3C2CCCCC2)cc1 (stereo not drawn)
inactive: [1] 94 % of control | [10] 97 % of control | [4] 93 % of control | [2] 104 % of control | [11] 92 % of control | [5] 94 % of control | [3] 110 % of control | [12] 91 % of control | [6] 98 % of control

CC(=O)c1ccc(OS(=O)(=O)c2ccc([N+](=O)[O-])cc2)cc1
inactive: [10] 90 % of control | [4] 94 % of control | [11] 90 % of control | [5] 94 % of control | [12] 86 % of control | [6] 89 % of control

O/N=C\CCC/C=N/O
inactive: [10] 98 % of control | [4] 100 % of control | [11] 91 % of control | [5] 94 % of control | [6] 103 % of control

C/C(=C/C(=O)O)c1ccc([N+](=O)[O-])cc1
inactive: dose: 100.0 mg/kg/injection, schedule: Q04DX003 (ip), vehicle: saline with Tween-80 100 % of control | dose: 200.0 mg/kg/injection, schedule: Q04DX003 (ip), vehicle: saline with Tween-80 96 % of control | dose: 400.0 mg/kg/injection, schedule: Q04DX003 (ip), vehicle: saline with Tween-80 100 % of control

CNC(=O)CCN1CCN(CC/C=C2\c3ccccc3Sc3ccc(Cl)cc32)CC1
inactive: dose: 1.56 mg/kg/injection, schedule: Q03HX024 (ip), vehicle: saline 95 % of control | dose: 2.05 mg/kg/injection, schedule: Q01DX009 (ip), vehicle: saline 90 % of control | dose: 3.12 mg/kg/injection, schedule: Q03HX024 (ip), vehicle: saline 100 % of control | dose: 4.1 mg/kg/injection, schedule: Q01DX009 (ip), vehicle: saline 94 % of control | dose: 8.2 mg/kg/injection, schedule: Q01DX009 (ip), vehicle: saline 111 % of control | dose: 16.5 mg/kg/injection, schedule: Q01DX009 (ip), vehicle: saline 111 % of control | dose: 18.75 mg/kg/injection, schedule: Q01DX001 (ip), vehicle: saline 106 % of control | dose: 25.0 mg/kg/injection, schedule: Q04DX003 (ip), vehicle: saline 122 % of control | dose: 37.5 mg/kg/injection, schedule: Q01DX001 (ip), vehicle: saline 108 % of control | [8] 106 % of control | dose: 100.0 mg/kg/injection, schedule: Q04DX003 (ip), vehicle: saline 114 % of control | [9] 106 % of control

COCC(=O)C(C(C)=O)C(c1ccc2c(c1)OCO2)C(C(C)=O)C(=O)COC (stereo not drawn)
inactive: dose: 100.0 mg/kg/injection, schedule: Q01DX009 (ip), vehicle: saline with Tween-80 87 % of control

N#C[SH2+].N#C[SH2+].N#C[SH2+].N#C[SH2+].[Cu+2].c1ccc(C[P+](c2ccccc2)(c2ccccc2)c2ccccc2)cc1
inactive: dose: 6.0 mg/kg/injection, schedule: Q01DX009 (ip), vehicle: saline 100 % of control

COc1ccc2c(c1)OC(OC)(c1ccccc1)C(O)(OC)C2=O (stereo not drawn)
inactive: [7] 96 % of control | [1] 98 % of control | [2] 96 % of control | [3] 98 % of control

CN(C)CCC(C=NCC(CCN(C)C)(CCN(C)C)c1cccc2ccccc12)(CCN(C)C)c1cccc2ccccc12
inactive: dose: 12.5 mg/kg/injection, schedule: Q01DX009 (ip), vehicle: saline with Tween-80 90 % of control | dose: 12.5 mg/kg/injection, schedule: Q04DX003 (ip), vehicle: saline with Tween-80 102 % of control | dose: 25.0 mg/kg/injection, schedule: Q01DX009 (ip), vehicle: saline with Tween-80 91 % of control | dose: 25.0 mg/kg/injection, schedule: Q04DX003 (ip), vehicle: saline with Tween-80 98 % of control
